From PMC9146984, “A Novel Proline-Rich Cathelicidin from the Alpaca Vicugna pacos with Potency to Combat Antibiotic-Resistant Bacteria: Mechanism of Action and the Functional Role of the C-Terminal Region” (Membranes, 2022)
≈ marks a conversion by molar mass, not a printed value. Where two headings read alike, the source gives them in different places. Where a SMILES comes first, the peptide text is derived from it. Bridges are numbered along the chain shown (N, C = ends). [ ]: non-standard residue; d: D form. The star is where a group is joined. X1 = CC[C@H](C)CCCCC(=O)*; Dab = NCC[C@H](N)C(=O)O

Key:
[1] = system: E. coli MDR CI 1057; settings: Mueller-Hinton broth supplemented with 0.9% NaCl; for Minimum inhibitory concentration E.coli MDR 1057 14 days w/o AMP: after 14 passages without antimicrobial agents; for Minimum inhibitory concentration E.coli MDR 1057 0 days: before passages
Experimental: (§1) Bacterial test cultures were grown in the Mueller-Hinton broth (MH; Sigma, St. Louis, MO, USA) at 37 °C to mid-log phase and then diluted with the 2× MH medium supplemented with 1.8% NaCl or without salt so that to reach a final cell concentration of 10^6 CFU/mL. 50 µL of the obtained bacterial suspension were added to aliquots of 50 µL of the peptide solutions serially diluted with sterilized 0.1% bovine serum albumin (BSA) in 96-well flat-bottom polystyrene microplates (Eppendorf #0030730011, Hamburg, Germany). […] To verify MIC values, the respiratory activity of the bacteria was determined. Briefly, 20 µL of 0.1 mg/mL resazurin (a redox indicator; Sigma, St. Louis, MO, USA) was added to the wells after 24 h of incubation, and the plate was incubated for an additional two hours. The reduction of resazurin to resorufin was measured. […] The results were expressed as the median values determined based on at least three independent experiments performed in triplicate.
(§2) Resistance induction experiments were performed using the previously described method. Briefly, on day one, the overnight culture of wild-type bacteria was diluted with the 2× MH broth supplemented with 1.8% NaCl to reach a final cell concentration of 10^6 CFU/mL. 50 µL of the obtained bacterial suspension were added to aliquots of 50 µL of the peptide solutions serially diluted with the sterilized 0.1% BSA in 96-well flat-bottom polystyrene microplates. After incubation for 20 ± 2 h at 37 °C and 950 rpm, MICs were determined as described above. For each subsequent daily transfer, 2–4 μL of the inoculum taken from the first well containing a sub-inhibitory drug concentration were diluted with 2 mL of the fresh 2× MH broth supplemented with 1.8% NaCl. […] 14 repeated passages in the presence of antimicrobial agents were made for each bacterial strain during the experiment. Bacteria that grew at the highest concentration of AMPs on the final day were passaged a further 3 times on drug-free agar plates before determining the final MIC value.

[2] = system: VicBac[1–22]-resistant E. coli MDR 1057 strain; settings: Mueller-Hinton broth supplemented with 0.9% NaCl; strain selected 14 days with VicBac[1-22]; cross-resistance
Experimental: as §1, §2

[3] = system: E. coli MDR 1057; settings: MH broth with 0.9% NaCl, 14 passages with the same agent (VicBac[1–22]: after 10 passages)
Experimental: Resistance induction experiments were performed using the previously described method. Briefly, on day one, the overnight culture of wild-type bacteria was diluted with the 2× MH broth supplemented with 1.8% NaCl to reach a final cell concentration of 10^6 CFU/mL. 50 µL of the obtained bacterial suspension were added to aliquots of 50 µL of the peptide solutions serially diluted with the sterilized 0.1% BSA in 96-well flat-bottom polystyrene microplates. After incubation for 20 ± 2 h at 37 °C and 950 rpm, MICs were determined as described above. For each subsequent daily transfer, 2–4 μL of the inoculum taken from the first well containing a sub-inhibitory drug concentration were diluted with 2 mL of the fresh 2× MH broth supplemented with 1.8% NaCl. […] Bacteria that grew at the highest concentration of AMPs on the final day were passaged a further 3 times on drug-free agar plates before determining the final MIC value.

[4] = system: E. coli BW25113 ΔmdtM; type: cell-based, Escherichia coli; settings: Mueller–Hinton broth, 24 h, 37 °C, median
Experimental: (§3) The reduction of resazurin to resorufin was measured.

[5] = system: E. coli BW25113 ΔsbmA; type: cell-based, Escherichia coli; settings: Mueller–Hinton broth, 24 h, 37 °C, median
Experimental: as §3

[6] = system: E. coli BW25113 ΔompF; type: cell-based, Escherichia coli; settings: Mueller–Hinton broth, 24 h, 37 °C, median
Experimental: as §3

[7] = system: E. coli BW25113; type: cell-based, Escherichia coli; settings: Mueller–Hinton broth, 24 h, 37 °C, median
Experimental: as §3

Compound | Minimum inhibitory concentration E.coli MDR 1057 14 days w/o AMP [1] | Minimum inhibitory concentration E.coli MDR 1057 0 days [1] | Minimum inhibitory concentration E.coli MDR 1057 14 days with VicBac [1-22] [2] | increase in MIC value after serial passage selection [3] | Minimum inhibitory concentration, E. coli strain ΔmdtM ([4]; 0.9% NaCl: +) | Minimum inhibitory concentration, E. coli strain ΔmdtM ([4]; 0.9% NaCl: −) | Minimum inhibitory concentration, E. coli strain ΔsbmA ([5]; 0.9% NaCl: +) | Minimum inhibitory concentration, E. coli strain ΔsbmA ([5]; 0.9% NaCl: −) | Minimum inhibitory concentration, E. coli strain ΔompF ([6]; 0.9% NaCl: +) | Minimum inhibitory concentration, E. coli strain ΔompF ([6]; 0.9% NaCl: −) | Minimum inhibitory concentration, E. coli strain BW25113 ([7]; 0.9% NaCl: +) | Minimum inhibitory concentration, E. coli strain BW25113 ([7]; 0.9% NaCl: −)
CC[C@H](C)CCCCC(=O)N[C@@H](CCN)C(=O)N[C@H](C(=O)N[C@@H](CCN)C(=O)N[C@H]1CCNC(=O)[C@H]([C@@H](C)O)NC(=O)[C@H](CCN)NC(=O)[C@H](CCN)NC(=O)[C@H](CC(C)C)NC(=O)[C@@H](Cc2ccccc2)NC(=O)[C@H](CCN)NC1=O)[C@@H](C)O [Polymyxin B, polymyxin B] (X1-[Dab]T[Dab][Dab][Dab][dF]L[Dab][Dab]T; lactam 4-C (inferred); N-terminus assumed) | 0.125 µM (≈ 0.15 µg/mL) | 0.125 µM (≈ 0.15 µg/mL) | 1 µM | 128 fold |  |  |  |  |  |  |  | 
CC[C@H](C)[C@H](NC(=O)[C@H](CCCNC(=N)N)NC(=O)[C@@H](N)CCCNC(=N)N)C(=O)N[C@@H](CCCNC(=N)N)C(=O)N[C@@H](CCCNC(=N)N)C(=O)N1CCC[C@H]1C(=O)N[C@@H](CCCNC(=N)N)C(=O)N[C@@H](CC(C)C)C(=O)N1CCC[C@H]1C(=O)N[C@@H](CCCNC(=N)N)C(=O)N1CCC[C@H]1C(=O)N[C@@H](CCCNC(=N)N)C(=O)N[C@H](C(=O)N1CCC[C@H]1C(=O)N[C@@H](CCCNC(=N)N)C(=O)N1CCC[C@H]1C(=O)N[C@@H](CCCNC(=N)N)C(=O)N[C@H](C(=O)N1CCC[C@H]1C(=O)N1CCC[C@H]1C(=O)O)[C@@H](C)CC)C(C)C [VicBac[1-20]] (H-RRIRRPRLPRPRVPRPRIPP-OH; N-terminus and C-terminus assumed) |  |  |  |  | 4 µM (≈ 10.2 µg/mL) | 8 µM (≈ 20.3 µg/mL) | > 64 µM | 8 µM (≈ 20.3 µg/mL) | 64 µM (≈ 163 µg/mL) | 16 µM (≈ 40.7 µg/mL) |  | 
CC[C@H](C)[C@H](NC(=O)[C@H](CCCNC(=N)N)NC(=O)[C@@H](N)CCCNC(=N)N)C(=O)N[C@@H](CCCNC(=N)N)C(=O)N[C@@H](CCCNC(=N)N)C(=O)N1CCC[C@H]1C(=O)N[C@@H](CCCNC(=N)N)C(=O)N[C@@H](CC(C)C)C(=O)N1CCC[C@H]1C(=O)N[C@@H](CCCNC(=N)N)C(=O)N1CCC[C@H]1C(=O)N[C@@H](CCCNC(=N)N)C(=O)N[C@H](C(=O)N1CCC[C@H]1C(=O)O)C(C)C [VicBac[1-14]] (H-RRIRRPRLPRPRVP-OH; N-terminus and C-terminus assumed) |  |  |  |  | > 64 µM | 32 µM (≈ 58.4 µg/mL) | > 64 µM | 64 µM (≈ 117 µg/mL) | > 64 µM | 64 µM (≈ 117 µg/mL) |  | 
CC[C@H](C)[C@H](NC(=O)[C@H](CCCCN)NC(=O)[C@H](CCC(=O)O)NC(=O)[C@H](CCCCN)NC(=O)[C@H](CO)NC(=O)[C@H](CCCCN)NC(=O)[C@H](CCCNC(=N)N)NC(=O)[C@H](Cc1ccccc1)NC(=O)[C@H](Cc1ccccc1)NC(=O)[C@H](CC(=O)O)NC(=O)CNC(=O)[C@H](CC(C)C)NC(=O)[C@@H](N)CC(C)C)C(=O)NCC(=O)N[C@@H](CCCCN)C(=O)N[C@@H](CCC(=O)O)C(=O)N[C@@H](Cc1ccccc1)C(=O)N[C@@H](CCCCN)C(=O)N[C@@H](CCCNC(=N)N)C(=O)N[C@H](C(=O)N[C@H](C(=O)N[C@@H](CCC(N)=O)C(=O)N[C@@H](CCCNC(=N)N)C(=O)N[C@H](C(=O)N[C@@H](CCCCN)C(=O)N[C@@H](CC(=O)O)C(=O)N[C@@H](Cc1ccccc1)C(=O)N[C@@H](CC(C)C)C(=O)N[C@@H](CCCNC(=N)N)C(=O)N[C@@H](CC(N)=O)C(=O)N[C@@H](CC(C)C)C(=O)N[C@H](C(=O)N1CCC[C@H]1C(=O)N[C@@H](CCCNC(=N)N)C(=O)N[C@H](C(=O)N[C@@H](CCC(=O)O)C(=O)N[C@@H](CO)C(=O)O)[C@@H](C)O)C(C)C)[C@@H](C)CC)C(C)C)[C@@H](C)CC [LL-37, reference compound] | 4 µM (≈ 18 µg/mL) | 4 µM (≈ 18 µg/mL) | 4 µM | 2 fold | 4 µM (≈ 18 µg/mL) | 4 µM (≈ 18 µg/mL) | 2 µM (≈ 8.99 µg/mL) | 4 µM (≈ 18 µg/mL) | 2 µM (≈ 8.99 µg/mL) | 4 µM (≈ 18 µg/mL) | 2 µM (≈ 8.99 µg/mL) | 4 µM (≈ 18 µg/mL)
CC(C)C[C@H](NC(=O)[C@H](CCCNC(=N)N)NC(=O)[C@@H]1CCCN1C(=O)[C@@H]1CCCN1C(=O)[C@H](Cc1ccccc1)NC(=O)[C@H](Cc1ccccc1)NC(=O)[C@@H]1CCCN1C(=O)[C@@H]1CCCN1C(=O)[C@@H]1CCCN1C(=O)[C@H](CCCNC(=N)N)NC(=O)[C@@H]1CCCN1C(=O)[C@H](CCCNC(=N)N)NC(=O)[C@@H]1CCCN1C(=O)[C@H](CC(C)C)NC(=O)[C@H](Cc1ccc(O)cc1)NC(=O)[C@@H]1CCCN1C(=O)[C@@H]1CCCN1C(=O)[C@H](CCCNC(=N)N)NC(=O)[C@@H]1CCCN1C(=O)[C@H](CCCNC(=N)N)NC(=O)[C@H](CCCNC(=N)N)NC(=O)[C@@H](N)CCCNC(=N)N)C(=O)O [PR-39[1-22]] (H-RRRPRPPYLPRPRPPPFFPPRL-OH; N-terminus and C-terminus assumed) | 2 µM (≈ 5.53 µg/mL) | 2 µM (≈ 5.53 µg/mL) | > 128 µM |  |  |  |  |  |  |  |  | 
CC[C@H](C)[C@H](NC(=O)[C@H](CCCNC(=N)N)NC(=O)[C@@H](N)CCCNC(=N)N)C(=O)N[C@@H](CCCNC(=N)N)C(=O)N1CCC[C@H]1C(=O)N[C@@H](CCCNC(=N)N)C(=O)N1CCC[C@H]1C(=O)N1CCC[C@H]1C(=O)N[C@@H](CCCNC(=N)N)C(=O)N[C@@H](CC(C)C)C(=O)N1CCC[C@H]1C(=O)N[C@@H](CCCNC(=N)N)C(=O)N1CCC[C@H]1C(=O)N[C@@H](CCCNC(=N)N)C(=O)N1CCC[C@H]1C(=O)N[C@@H](CCCNC(=N)N)C(=O)N1CCC[C@H]1C(=O)N[C@@H](CC(C)C)C(=O)N1CCC[C@H]1C(=O)N[C@@H](Cc1ccccc1)C(=O)N1CCC[C@H]1C(=O)N[C@@H](CCCNC(=N)N)C(=O)O [Bac7[1-22], reference compound] (H-RRIRPRPPRLPRPRPRPLPFPR-OH) | 1 µM (≈ 2.78 µg/mL) | 1 µM (≈ 2.78 µg/mL) | > 128 µM |  | 1 µM (≈ 2.78 µg/mL) | 4 µM (≈ 11.1 µg/mL) | 32 µM (≈ 89.1 µg/mL) | 1 µM (≈ 2.78 µg/mL) | 32 µM (≈ 89.1 µg/mL) | 2 µM (≈ 5.57 µg/mL) |  | 
